Assay results as given in paper PMC7130106 (Drug Design, Development and Therapy, 2020).
“Also recorded” adds a separate entry of the source.

Assays:
[1] = co-administered with tenofovir, efavirenz, ritonavir and rifampin; cited from earlier work
[2] = test system: intracellular amastigote stages of L. donovani; test: Synergy evaluation, combination index method with amphotericin B; format: cell-based, Leishmania donovani
[3] = test system: various clinical isolates of L. donovani; conditions: read-out: lowest IC50, L. donovani isolates obtained from Ethiopia; ref 38 (Patterson et al); cited from earlier work
[4] = test system: L. donovani promastigotes; conditions: read-out: IC50 on L. donovani promastigotes; ref 38 (Patterson et al); cited from earlier work
[5] = cited from earlier work
L. mexicana = conditions: read-out: IC50 on L. mexicana; ref 28 (Berry et al); cited from earlier work
[6] = test system: Leishmania donovani promastigotes; format: cell-based

Row | SMILES | interaction with anti-retroviral and anti-TB drugs [1] | synergistic activity with amphotericin B [2] | IC50 [3] [nM] | IC50 [4] [nM] | renal excretion [5] [%] | volume of distribution ([5]; in words) | IC50 (L. mexicana) [nM] | inhibition of promastigotes in primary screening ([6]; 1 μM, 72 h, average of two independent experiments in triplicate) | dose-dependent inhibitory effect in subsequent dose titration assay ([6]; promastigotes)
1 | C[C@]1(COc2ccc(N3CCC(Oc4ccc(OC(F)(F)F)cc4)CC3)cc2)Cn2cc([N+](=O)[O-])nc2O1 [MMV688262, delamanid] | no clinically relevant interaction | synergistic effect; also recorded: synergistic activity | 86.5 | 15 | < 5 | high volume of distribution | 1780 |  | 
2 | CC(C)(C)C(O)C(Oc1ccc(-c2ccccc2)cc1)n1cncn1 (stereo not drawn) [MMV688942] |  |  |  |  |  |  |  | considerable activity | failed to demonstrate a dose-dependent inhibitory effect
